Data from ChEMBL document CHEMBL1201862, “PubChem BioAssay data set” (2004).
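Dose response: 5 concentrations. Exposure: 48 h. Format: 96-well plates. Endpoint: linear interpolation; highest concentration if not reached. Here, GI50 denotes the concentration required for 50% inhibition of growth.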 The source made the active and inactive calls. Cut-off read from the data, not from the text of the source: active = GI50 up to about 1.1 µM and inactive = higher.

Legend:
Assay in all cases: NCI-60 cell line screen, 48 h
786-0 = tested on: 786-0
COLO 205 = tested on: COLO 205
DU-145 = tested on: DU-145
HCT-15 = tested on: HCT-15
HOP-62 = tested on: HOP-62
K562 = tested on: K562
LOX IMVI = tested on: LOX IMVI
MCF7 = tested on: MCF7
MOLT-4 = tested on: MOLT-4
Malme-3M = tested on: Malme-3M
NCI-H23 = tested on: NCI-H23
NCI/ADR-RES = tested on: NCI/ADR-RES
OVCAR-8 = tested on: OVCAR-8
RXF 393 = tested on: RXF 393
SF-295 = tested on: SF-295
SK-OV-3 = tested on: SK-OV-3
SN12C = tested on: SN12C
TK-10 = tested on: TK-10
U-251 = tested on: U-251
UACC-62 = tested on: UACC-62

Compound | GI50 (786-0) | GI50 (COLO 205) | GI50 (DU-145) | GI50 (HCT-15) [µM] | GI50 (HOP-62) | GI50 (K562) | GI50 (LOX IMVI) | GI50 (MCF7) | GI50 (MOLT-4) | GI50 (Malme-3M) | GI50 (NCI-H23) | GI50 (NCI/ADR-RES) | GI50 (OVCAR-8) | GI50 (RXF 393) | GI50 (SF-295) | GI50 (SK-OV-3) | GI50 (SN12C) | GI50 (TK-10) | GI50 (U-251) | GI50 (UACC-62)
CN1CCN(c2ccc3[nH]c(-c4ccc5[nH]c(CCCc6ccc(N(CCCl)CCCl)cc6)nc5c4)nc3c2)CC1 | > 100 µM (inactive) | > 100 µM (inactive) | > 100 µM (inactive) | > 100 | > 100 µM (inactive) | > 100 µM (inactive) | 60.7 µM (inactive) | 64.3 µM (inactive) | 77.8 µM (inactive) | > 100 µM (inactive) | > 100 µM (inactive) | > 100 µM (inactive) | > 100 µM (inactive) | > 100 µM (inactive) | > 100 µM (inactive) | > 100 µM (inactive) | > 100 µM (inactive) | > 100 µM (inactive) | > 100 µM (inactive) | 84.5 µM (inactive)
COc1ccc(/C=C/c2cc(OC)cc(=O)o2)cc1 [YANGONIN] | 36.1 µM (inactive) | > 100 µM (inactive) | 95.9 µM (inactive) | > 100 | 40 µM (inactive) | 63.1 µM (inactive) | > 100 µM (inactive) | > 100 µM (inactive) | > 100 µM (inactive) | > 100 µM (inactive) | 51.8 µM (inactive) | > 100 µM (inactive) | > 100 µM (inactive) | 44.2 µM (inactive) | 37.2 µM (inactive) | 91.4 µM (inactive) | > 100 µM (inactive) | 45.1 µM (inactive) | 27.1 µM (inactive) | 63.1 µM (inactive)
CN(C)CCCn1c(Cc2ccccc2)nc2cc(C(F)(F)F)ccc21 | 19.1 µM (inactive) | 16.1 µM (inactive) | 67.5 µM (inactive) | 24.8 | 26.4 µM (inactive) | 18.5 µM (inactive) | 18 µM (inactive) | 20.5 µM (inactive) | 19.8 µM (inactive) | 17.7 µM (inactive) | 29.5 µM (inactive) | 65.6 µM (inactive) | 39.7 µM (inactive) | 21.2 µM (inactive) | 17.1 µM (inactive) | 23.5 µM (inactive) | 41.6 µM (inactive) | 28.8 µM (inactive) | 20 µM (inactive) | 18.8 µM (inactive)
O=C(CCCN1CCC(Nc2ccccc2)(c2nnnn2C2CCCCC2)CC1)c1ccc(F)cc1 | 3.89 µM (inactive) | 2.24 µM (inactive) | 3.81 µM (inactive) | 8.28 | 6.17 µM (inactive) | 13 µM (inactive) | 3.81 µM (inactive) | 2.28 µM (inactive) | 14 µM (inactive) | 3.24 µM (inactive) | 13.7 µM (inactive) | 21 µM (inactive) | 13.1 µM (inactive) | 9.64 µM (inactive) | 14.5 µM (inactive) | 13.3 µM (inactive) | 10.6 µM (inactive) | 12.9 µM (inactive) | 5.86 µM (inactive) | 11.7 µM (inactive)
O=c1c2ncn(C3CC(O)C(CO)O3)c2nnn1Cc1ccccc1[N+](=O)[O-] (stereo not given) | > 100 µM (inactive) | > 100 µM (inactive) | > 100 µM (inactive) | > 100 | > 100 µM (inactive) | > 100 µM (inactive) | > 100 µM (inactive) | > 100 µM (inactive) | 29.4 µM (inactive) | > 100 µM (inactive) | > 100 µM (inactive) | > 100 µM (inactive) | > 100 µM (inactive) | 17.8 µM (inactive) | > 100 µM (inactive) | > 100 µM (inactive) | > 100 µM (inactive) | > 100 µM (inactive) | > 100 µM (inactive) | > 100 µM (inactive)
CC(C)CCCC(C)[C@H]1CC[C@H]2N/C(=N/c3ccccc3)CCC[C@]12C (stereo not given in full) | 1.77 µM (inactive) | 1.3 µM (inactive) | 6.52 µM (inactive) | 1.07 | 2.52 µM (inactive) | 1.33 µM (inactive) | 0.863 µM (active) | 1.79 µM (inactive) | 1.64 µM (inactive) | 2.67 µM (inactive) | 1.72 µM (inactive) | 1.68 µM (inactive) | 0.893 µM (active) | 1.42 µM (inactive) | 1.6 µM (inactive) | 2.03 µM (inactive) | 1.77 µM (inactive) | 2.62 µM (inactive) | 1.82 µM (inactive) | 1.85 µM (inactive)
